62 molecules from patent US8877741B2, “Pyrrolidine derivatives, pharmaceutical compositions and uses thereof” (Boehringer Ingelheim International GmbH, priority 2013, dated 2014) can be followed below.

For the test, the target named is human ACC2 (Homo sapiens (Human), UniProt O00763). Briefly: ACC2 assay, spectrophotometric 384 well assay (NADH-linked kinetic method). It counts as biochemical. Conditions: human ACC2 construct lacking the 128 N-terminal amino acids; coupled lactate dehydrogenase/pyruvate kinase reaction, 340 nm, 25° C. Here is the method: Spectrophotometric 384 Well Assay
Sequence of human ACC2 (O00763 129-2458): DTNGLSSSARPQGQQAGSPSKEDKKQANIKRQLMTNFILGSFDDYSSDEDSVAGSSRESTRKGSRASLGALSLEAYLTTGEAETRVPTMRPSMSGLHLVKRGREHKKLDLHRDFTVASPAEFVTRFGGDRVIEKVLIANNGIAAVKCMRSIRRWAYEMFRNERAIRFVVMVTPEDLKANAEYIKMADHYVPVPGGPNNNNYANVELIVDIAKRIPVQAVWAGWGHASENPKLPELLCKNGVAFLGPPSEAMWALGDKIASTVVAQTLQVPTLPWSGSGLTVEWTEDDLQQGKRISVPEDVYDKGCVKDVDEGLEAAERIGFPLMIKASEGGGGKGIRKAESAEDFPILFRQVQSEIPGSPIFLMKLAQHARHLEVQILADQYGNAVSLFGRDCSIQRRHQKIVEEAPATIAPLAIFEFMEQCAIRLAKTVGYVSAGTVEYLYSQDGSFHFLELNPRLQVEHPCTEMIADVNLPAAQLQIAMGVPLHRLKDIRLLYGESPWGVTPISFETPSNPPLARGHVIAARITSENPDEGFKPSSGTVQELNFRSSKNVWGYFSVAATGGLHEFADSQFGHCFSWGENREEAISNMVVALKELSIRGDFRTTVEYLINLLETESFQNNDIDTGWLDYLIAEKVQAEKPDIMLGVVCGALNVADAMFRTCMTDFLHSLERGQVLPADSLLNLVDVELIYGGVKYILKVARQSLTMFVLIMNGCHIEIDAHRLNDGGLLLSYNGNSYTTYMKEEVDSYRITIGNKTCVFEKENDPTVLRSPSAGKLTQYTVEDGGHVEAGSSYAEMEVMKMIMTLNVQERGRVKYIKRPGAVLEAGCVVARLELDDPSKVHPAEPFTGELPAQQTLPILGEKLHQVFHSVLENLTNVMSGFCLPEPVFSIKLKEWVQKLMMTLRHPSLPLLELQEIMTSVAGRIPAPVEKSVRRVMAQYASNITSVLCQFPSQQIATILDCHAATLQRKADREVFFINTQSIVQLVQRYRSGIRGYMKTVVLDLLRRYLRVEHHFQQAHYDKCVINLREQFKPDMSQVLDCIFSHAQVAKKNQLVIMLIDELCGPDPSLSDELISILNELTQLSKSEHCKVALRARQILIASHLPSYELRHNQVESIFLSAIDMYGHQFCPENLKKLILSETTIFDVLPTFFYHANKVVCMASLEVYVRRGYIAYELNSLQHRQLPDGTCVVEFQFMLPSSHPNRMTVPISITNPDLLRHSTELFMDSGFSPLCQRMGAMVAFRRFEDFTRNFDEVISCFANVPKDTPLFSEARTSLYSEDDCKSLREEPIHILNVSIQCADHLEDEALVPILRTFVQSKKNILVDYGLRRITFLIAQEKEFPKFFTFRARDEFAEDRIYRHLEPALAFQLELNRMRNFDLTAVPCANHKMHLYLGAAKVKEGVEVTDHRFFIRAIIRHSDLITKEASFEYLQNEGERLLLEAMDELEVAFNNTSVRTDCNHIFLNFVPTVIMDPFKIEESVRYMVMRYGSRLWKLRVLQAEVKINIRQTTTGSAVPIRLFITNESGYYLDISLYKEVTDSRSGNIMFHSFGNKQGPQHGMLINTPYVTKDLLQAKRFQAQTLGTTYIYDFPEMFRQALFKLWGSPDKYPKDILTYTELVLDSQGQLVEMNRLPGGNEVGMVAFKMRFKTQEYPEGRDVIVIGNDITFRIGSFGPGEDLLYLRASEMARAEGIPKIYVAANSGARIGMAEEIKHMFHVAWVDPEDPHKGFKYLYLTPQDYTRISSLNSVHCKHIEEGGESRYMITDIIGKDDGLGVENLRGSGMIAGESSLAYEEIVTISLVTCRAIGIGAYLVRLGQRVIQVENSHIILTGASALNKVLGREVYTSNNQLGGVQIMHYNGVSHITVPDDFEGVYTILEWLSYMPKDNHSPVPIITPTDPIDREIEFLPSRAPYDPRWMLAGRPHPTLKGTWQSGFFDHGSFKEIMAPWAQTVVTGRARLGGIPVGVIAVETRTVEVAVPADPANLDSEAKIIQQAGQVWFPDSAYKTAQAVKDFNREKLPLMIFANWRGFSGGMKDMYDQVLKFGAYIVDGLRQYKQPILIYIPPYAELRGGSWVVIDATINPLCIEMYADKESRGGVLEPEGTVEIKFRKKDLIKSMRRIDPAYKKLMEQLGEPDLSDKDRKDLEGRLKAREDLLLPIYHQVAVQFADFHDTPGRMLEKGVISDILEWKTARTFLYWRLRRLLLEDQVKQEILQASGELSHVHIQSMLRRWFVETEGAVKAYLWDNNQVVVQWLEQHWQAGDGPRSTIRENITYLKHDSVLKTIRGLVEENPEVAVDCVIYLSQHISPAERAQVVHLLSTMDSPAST
Malonyl CoA formation by acetyl CoA carboxylases is stoichometrically linked to the consumption of ATP. ACC2 activity is measured in a NADH-linked kinetic method measuring ADP generated during the ACC reaction using a coupled lactate dehydrogenase/pyruvate kinase reaction.
For biological testing, a human ACC2 construct which lacks the 128 amino acids at the N-terminus for increased solubility (nt 385-6966 in Genbank entry AJ575592) is cloned. The protein is then expressed in insect cells using a baculoviral expression system. Protein purification is performed by anion exchange.
All compounds are dissolved in dimethyl sulfoxide (DMSO) to a concentration of 10 mM.
The enzymatic reaction is then started by addition of a mixture of NADH, acetyl Coenzyme A (both 2000 μM f.c.) and ATP (500 uM f.c.). The decrease of the optical density (slope S) is then determined at 25° C. at a wavelength of 340 nm over 15 minutes in a spectrophotometric reader.
Each assay microtiter plate contains wells with vehicle instead of compound as controls for the non-inhibited enzyme (100% CTL; ‘HIGH’) and wells without acetyl-CoA as controls for non-specific NADH degradation (0% CTL; ‘LOW’).
The slope S is used for calculation of % CTL=(S(compound)−S(‘LOW’))/(S(‘HIGH’)−S(‘LOW’))*100.
For IC50 value determination, the sample slope in the presence of the test compound after subtraction of the low controls (S(compound)−S(‘LOW’)) are used.
An IC50 value is derived from the compound slopes at different dosages after subtraction of the low controls (S(compound)−S(‘LOW’)) by non-linear regression curve fitting (equation y=(A+((B−A)/(1+((C/x)^D))))).
`CC(=O)N[C@@H](C)c1ccc(O[C@@H]2CCN(c3ccc(OCC4CC4(F)F)cn3)C2)cc1` (stereo partly drawn) [Example 1.1, N—((1S)-1-(4-((3R)-1-(5-((2,2-Difluorocyclopropyl)methoxy)pyridin-2-yl)pyrrolidin-3-yloxy)phenyl)ethyl)acetamide]: the concentration for half-maximal inhibition (IC50) – broadly, the concentration at which inhibition is half-maximal – stood at 46 nM.

As to `CCCOc1ccc(N2CCC(Oc3ccc([C@H](C)NC(C)=O)cc3)C2)nc1` (some centres unmarked) [Example 1.2], the IC50 stood at 146 nM.

The molecule `CC(=O)N[C@@H](C)c1ccc(OC2CCN(c3ccnc(OC(C)C)c3)C2)cc1` (some centres unmarked) [Example 1.3] had an IC50 of 134 nM.

On to `CCCOc1ccc(N2CCC(Oc3ccc([C@H](C)NC(C)=O)cc3)C2)cn1` (some centres unmarked) [Example 1.4], for which 193 nM corresponded to half-maximal inhibition (IC50).

`CCOc1ccc(N2CCC(Oc3ccc([C@H](C)NC(C)=O)cc3)C2)cn1` (some centres unmarked) [Example 1.5] showed an IC50 of 510 nM.

Consider `CCOc1ccc(N2CCC(Oc3ccc([C@H](C)NC(C)=O)cc3)C2)nc1` (some centres unmarked) [Example 1.6], for which the half-inhibitory concentration (IC50) was 306 nM.

The molecule `CC(=O)N[C@@H](C)c1ccc(OC2CCN(c3ncc(OCC4CC4)cc3F)C2)cc1` (some centres unmarked) [Example 1.7] registered an IC50 of 137 nM.

Molecule `CC(=O)N[C@@H](C)c1ccc(OC2CCN(c3ccc(OCC(C)C)cn3)C2)cc1` (some centres unmarked) [Example 1.8] showed an IC50 of 375 nM.

On to `CCOc1cnc(N2CCC(Oc3ccc([C@H](C)NC(C)=O)cc3)C2)c(F)c1` (some centres unmarked) [Example 1.9], for which the half-inhibitory concentration (IC50) amounted to 556 nM.

For the molecule `CC(=O)N[C@@H](C)c1ccc(OC2CCN(c3ccc(OC(C)C)nc3)C2)cc1` (some centres unmarked) [Example 1.10], the half-maximal inhibitory concentration (IC50) amounted to 832 nM.

In turn, `CCCOc1cnc(N2CCC(Oc3ccc([C@H](C)NC(C)=O)cc3)C2)c(F)c1` (some centres unmarked) [Example 1.11] yielded an IC50 of 151 nM.

For `CCOc1cc(N2CCC(Oc3ccc([C@H](C)NC(C)=O)cc3)C2)ccn1` (some centres unmarked) [Example 1.12], the IC50 came to 265 nM.

Regarding `CCCOc1ccc(N2CCC(Oc3ccc([C@H](C)NC(C)=O)cc3)C2)c(C#N)n1` (some centres unmarked) [Example 1.13], the IC50 stood at 345 nM.

On to `CC(=O)N[C@@H](C)c1ccc(OC2CCN(c3ccc(OCC4CC4)nc3)C2)cc1` (some centres unmarked) [Example 1.14], for which the 50% inhibitory concentration (IC50) worked out at 394 nM.

Regarding `CC(=O)N[C@@H](C)c1ccc(OC2CCN(c3ccnc(OCC4CC4)c3)C2)cc1` (some centres unmarked) [Example 1.15], the IC50 was 60 nM.

With `CCCOc1cc(N2CCC(Oc3ccc([C@H](C)NC(C)=O)cc3)C2)ccn1` (some centres unmarked) [Example 1.16], the IC50 was 114 nM.

In turn, `CC(=O)N[C@@H](C)c1ccc(OC2CCN(c3cccc(C)n3)C2)cc1` (some centres unmarked) [Example 1.18] returned a concentration for half-maximal inhibition (IC50) of 167 nM.

In the case of `CC(=O)N[C@@H](C)c1ccc(OC2CCN(c3ccnc(OCC4CC4(F)F)c3)C2)cc1` (some centres unmarked) [Example 1.19], half-maximal inhibition (IC50) required 54 nM.

In the case of `CC(=O)N[C@@H](C)c1ccc(OC2CCN(c3ncc(OC4CCC4)cc3F)C2)cc1` (some centres unmarked) [Example 1.20], inhibition was half-maximal at 65 nM (IC50).

As to `CC(=O)N[C@@H](C)c1ccc(OC2CCN(c3ccc(OC4CCC4)nc3)C2)cc1` (some centres unmarked) [Example 1.21], the IC50 was found to be 335 nM.

Turning to `CC(=O)N[C@@H](C)c1ccc(OC2CCN(c3ncc(OC(C)C)cc3F)C2)cc1` (some centres unmarked) [Example 1.22], the IC50 was 104 nM.

Regarding `CC(=O)N[C@@H](C)c1ccc(OC2CCN(c3ncc(OCC4CC4(F)F)cc3F)C2)cc1` (some centres unmarked) [Example 1.23], the IC50 was 115 nM.

`CCOc1cc(N2CCC(Oc3ccc([C@H](C)NC(C)=O)cc3)C2)c(C)cn1` (some centres unmarked) [Example 1.24] came in with an IC50 of 447 nM.

The molecule `CC(=O)N[C@@H](C)c1ccc(OC2CCN(c3cc(OCC4CC4)ncc3C)C2)cc1` (some centres unmarked) [Example 1.25] registered an IC50 of 228 nM.

For the molecule `CC(=O)N[C@@H](C)c1ccc(OC2CCN(c3ccc(OC4CCC4)cn3)C2)cc1` (some centres unmarked) [Example 1.26], the concentration for half-maximal inhibition (IC50) worked out at 114 nM.

As for `CC(=O)N[C@@H](C)c1ccc(OC2CCN(c3ccc(OC4CCCC4)cn3)C2)cc1` (some centres unmarked) [Example 1.27], the IC50 worked out at 70 nM.

`CCC(C)Oc1ccc(N2CCC(Oc3ccc([C@H](C)NC(C)=O)cc3)C2)nc1` (some centres unmarked) [Example 1.28] returned an IC50 of 245 nM.

Regarding `CC(=O)N[C@@H](C)c1ccc(OC2CCN(c3ccc(OCCC(F)(F)F)cn3)C2)cc1` (some centres unmarked) [Example 1.29], half-maximal inhibition (IC50) was put at 130 nM.

On to `CCOc1cc(N2CCC(Oc3ccc([C@H](C)NC(C)=O)cc3)C2)c(F)cn1` (some centres unmarked) [Example 1.30], for which half-maximal inhibition (IC50) was put at 117 nM.

For `CC(=O)N[C@@H](C)c1ccc(OC2CCN(c3ccc(OCCC4CC4)cn3)C2)cc1` (some centres unmarked) [Example 1.31], the IC50 came out at 139 nM.

Take `CC(=O)N[C@@H](C)c1ccc(OC2CCN(c3ncc(OC4CCCC4)cc3F)C2)cc1` (some centres unmarked) [Example 1.32]: the half-maximal inhibitory concentration (IC50) stood at 50 nM.

In turn, `CC(=O)N[C@@H](C)c1ccc(OC2CCN(c3ncc(OCC(F)(F)F)cc3F)C2)cc1` (some centres unmarked) [Example 1.33] registered an IC50 of 504 nM.

The molecule `CC(=O)N[C@@H](C)c1ccc(OC2CCN(c3ncc(OCCC4CC4)cc3F)C2)cc1` (some centres unmarked) [Example 1.34] had a half-inhibitory concentration (IC50) of 434 nM.

In the case of `CC(=O)N[C@@H](C)c1ccc(OC2CCN(c3ccnc(OCC4CC4)c3)C2)cc1` (some centres unmarked) [Example 1.35], inhibition was half-maximal at 414 nM (IC50).

In turn, `CC(=O)N[C@@H](C)c1ccc(OC2CCN(c3nc(C(F)(F)F)ccc3F)C2)cc1` (some centres unmarked) [Example 1.36] registered a 50% inhibitory concentration (IC50) of 168 nM.

The molecule `CCCOc1ccc(N2CCC(Oc3ccc([C@H](C)NC(C)=O)cc3)C2)c(C)n1` (some centres unmarked) [Example 1.37] registered a half-inhibitory concentration (IC50) of 360 nM.

Molecule `CC(=O)N[C@@H](C)c1ccc(OC2CCN(c3cccc(C4CC4)n3)C2)cc1` (some centres unmarked) [Example 1.38] yielded a half-maximal inhibitory concentration (IC50) of 95 nM.

In turn, `CCCOc1cnc(N2CCC(Oc3ccc([C@H](C)NC(C)=O)cc3)C2)c(C)c1` (some centres unmarked) [Example 1.39] returned an IC50 of 379 nM.

Molecule `CC(=O)N[C@@H](C)c1ccc(OC2CCN(c3cnc(OCC4CC4(F)F)cc3C)C2)cc1` (some centres unmarked) [Example 1.40] displayed a 50% inhibitory concentration (IC50) of 775 nM.

As to `CC(=O)N[C@@H](C)c1ccc(OC2CCN(c3ncc(OCC4CC4)cc3C)C2)cc1` (some centres unmarked) [Example 1.41], the half-inhibitory concentration (IC50) was determined as 154 nM.

`CC(=O)N[C@@H](C)c1ccc(OC2CCN(c3ccc(OCC4CC4(F)F)nc3)C2)cc1` (some centres unmarked) [Example 1.42] came in with an IC50 of 219 nM.

`CC(=O)Nc1nc(C)c(C(=O)N[C@@H](C)c2ccc(O[C@@H]3CCN(c4ccnc(OCC5CC5)c4)C3)cc2)s1` [Example 1.43] had an IC50 of 59 nM.

As to `CC(=O)N[C@@H](C)c1ccc(OC2CCN(c3nc(C)ccc3F)C2)cc1` (some centres unmarked) [Example 1.44], the concentration for half-maximal inhibition (IC50) worked out at 256 nM.

As to `CC(=O)Nc1nc(C)c(C(=O)N[C@@H](C)c2ccc(O[C@@H]3CCN(c4cccc(C(F)(F)F)n4)C3)cc2)s1` [Example 1.45], the IC50 stood at 64 nM.

`CCCOc1ccc(N2CC[C@@H](Oc3ccc([C@H](C)NC(=O)c4sc(NC(C)=O)nc4C)cc3)C2)cn1` [Example 1.46] displayed a half-maximal inhibitory concentration (IC50) of 149 nM.

On to `CCOc1cc(N2CC[C@@H](Oc3ccc([C@H](C)NC(=O)c4sc(NC(C)=O)nc4C)cc3)C2)ccn1` [Example 1.47], for which the half-inhibitory concentration (IC50) turned out to be 120 nM.

Molecule `CCCOc1cnc(N2CC[C@@H](Oc3ccc([C@H](C)NC(=O)c4sc(NC(C)=O)nc4C)cc3)C2)c(F)c1` [Example 1.48] showed a half-inhibitory concentration (IC50) of 352 nM.

`CC(=O)Nc1nc(C)c(C(=O)N[C@@H](C)c2ccc(O[C@@H]3CCN(c4ccnc(OC(C)C)c4)C3)cc2)s1` [Example 1.49] showed an IC50 of 179 nM.

The molecule `CCCOc1ccc(N2CC[C@@H](Oc3ccc([C@H](C)NC(=O)c4sc(NC(C)=O)nc4C)cc3)C2)nc1` [Example 1.50] displayed an IC50 of 170 nM.

With `CCCOc1cc(C)c(N2CCC(Oc3ccc([C@H](C)NC(C)=O)cc3)C2)cn1` (some centres unmarked) [Example 1.51], the midpoint of inhibition, the IC50, lay at 401 nM.

Take `CCOc1cnc(N2CCC(Oc3ccc([C@H](C)NC(C)=O)cc3)C2)c(C)c1` (some centres unmarked) [Example 1.52]: half-maximal inhibition (IC50) was put at 474 nM.

With `C[C@H](NC(=O)N(C)C)c1ccc(OC2CCN(c3ccnc(OCC4CC4)c3)C2)cc1` (some centres unmarked) [Example 1.53], 85 nM corresponded to half-maximal inhibition (IC50).

Molecule `C[C@H](NC(=O)N(C)C)c1ccc(OC2CCN(c3ccc(OCC4CC4(F)F)cn3)C2)cc1` (some centres unmarked) [Example 1.54] gave a 50% inhibitory concentration (IC50) of 140 nM.

As to `C[C@H](NC(=O)N(C)C)c1ccc(OC2CCN(c3ncc(OCC4CC4(F)F)cc3F)C2)cc1` (some centres unmarked) [Example 1.55], half-maximal inhibition (IC50) required 154 nM.

`Cc1cnc(OCC2CC2)cc1N1CCC(Oc2ccc([C@H](C)NC(=O)N(C)C)cc2)C1` (some centres unmarked) [Example 1.56] yielded an IC50 of 585 nM.

Regarding `COc1cccc(N2CCC(Oc3ccc([C@H](C)NC(C)=O)cc3)C2)n1` (some centres unmarked) [Example 1.57], the IC50 stood at 678 nM.

`C[C@H](NC(=O)N(C)C)c1ccc(OC2CCN(c3ccc(F)c(C(F)(F)F)n3)C2)cc1` (some centres unmarked) [Example 1.58] yielded an IC50 of 55 nM.

`CC(=O)N[C@@H](C)c1ccc(OC2CCN(c3cccc(C(C)(C)C)n3)C2)cc1` (some centres unmarked) [Example 1.59]: the half-inhibitory concentration (IC50) was 150 nM.

Regarding `CCc1cccc(N2CCC(Oc3ccc([C@H](C)NC(C)=O)cc3)C2)n1` (some centres unmarked) [Example 1.60], the IC50 was 202 nM.

On to `CCOc1cccc(N2CCC(Oc3ccc([C@H](C)NC(C)=O)cc3)C2)n1` (some centres unmarked) [Example 1.62], for which the 50% inhibitory concentration (IC50) amounted to 802 nM.

For the molecule `CC(=O)N[C@@H](C)c1ccc(OC2CCN(c3cccc(C(C)C)n3)C2)cc1` (some centres unmarked) [Example 1.63], the concentration for half-maximal inhibition (IC50) was determined as 55 nM.

Molecule `CC(=O)N[C@@H](C)c1ccc(OC2CCN(c3cccc(C(F)F)n3)C2)cc1` (some centres unmarked) [Example 1.64] gave an IC50 of 154 nM.
